From article PMC9605374 (Marine Drugs, 2022)
Read-outs that look alike come from different tables or passages of the source.

Experiments:
[1] = test system: 22Rv1 cells; experiment: Annexin-V-FITC/PI double staining, flow cytometry; assay type: cell-based, human; settings: 22Rv1, zVAD 100 µM 1 h pretreatment, 48 h
Procedure: Figure 4 Investigation of the proapoptotic activity of NB. Flow cytometry analysis of 22Rv1 cells after 48 h of treatment. (A) Cell cycle and DNA fragmentation analysis. Treated cells were stained with PI and analyzed using a flow cytometry technique. Sub-G1 population was assumed to be apoptotic cells containing fragmentated DNA. (B) Analysis of phosphatidylserine externalization. Treated cells were double-stained with annexin-V-FITC and PI and analyzed using the flow cytometry technique. Cells of the low left quadrant (annexin-V-FITC^−/PI^−) were considered as alive cells. The Cell Quest Pro v.5.2.1 software (BD Bioscience, San Jose, CA, USA) was used to analyze and quantify the FACS data. Cells treated for 48 h with 10 µM of anisomycin were used as a positive control. Number of replicates n = 3. Statistical significance: * p < 0.05 (ANOVA). […]
Externalization of phosphatidylserine is a distinct marker of apoptotic cell death that can be detected by flow cytometry using annexin-V-FITC and propidium iodide (PI) double staining. […] Cells were harvested utilizing trypsin, stained with annexin-V-FITC and propidium iodide, and analyzed using FACS Calibur (BD Bioscience, San Jose, CA, USA).

[2] = test system: VCaP; experiment: MTT assay, cell viability; assay type: cell-based; settings: Homo sapiens, 48 h of treatment, mean ± SD
Text: (§1) To examine the anticancer potential and selectivity of NB, we used a panel of six human prostate cancer cell lines, harboring different levels of treatment resistance to representatively reflect the heterogeneity of the disease. […] Additionally, four human noncancer cells lines were utilized in order to determine the selectivity of NB towards prostate cancer cells, i.e., prostate noncancer PNT2 and RWPE-1 cells, human embryonic kidney HEK 293T cells, and human fibroblasts MRC-9. The different cell lines were treated with NB and the cell viability was examined using MTT assay (Figure 1). The mean IC50 of NB and docetaxel (used as a reference substance) in noncancerous cell lines was divided by the mean IC50 in the prostate cancer cell lines to determine the selectivity index (SI).
(§2) The MTT assay was used to monitor the effect of the drugs on cell viability in terms of metabolic activity, as previously reported. First, preincubation of the cells in 96-well plates (6 × 10^3 cells/well in 100 μL/well) was performed overnight in the correspondent culture medium. Next, the medium was exchanged for fresh medium containing the investigated compounds or a vehicle (100 μL/well). Cells were then incubated for 48 h, unless otherwise stated. Then, 10 μL/well of 3-(4,5-dimethylthiazol-2-yl)-2,5-diphenyltetrazolium bromide reagent (MTT, 5 mg/mL) were added. After 2–4 h of additional incubation the media was removed, and the plates were dried. Finally, 50 μL/well of DMSO were added to solve the formed formazan crystals produced by the metabolic active cells and Infinite F200PRO reader (TECAN, Männedorf, Switzerland) was used to measure the cell viability. The results were proceeded with a GraphPad Prism software v.9.1.1 (GraphPad Software, San Diego, CA, USA). Cells treated with the solvent of the drugs alone were used as a control (100% alive cells). The effect of the drugs on cell viability is represented as IC50.

[3] = test system: MRC-9; experiment: MTT assay, cell viability; assay type: cell-based; settings: Homo sapiens, MRC9, MRC-9, 48 h of treatment, mean ± SD
Text: as §1, §2

[4] = test system: RWPE-1; experiment: MTT assay, cell viability; assay type: cell-based; settings: Homo sapiens, RWPE-1, 48 h of treatment, mean ± SD
Text: as §1, §2

[5] = test system: DU145; experiment: MTT assay, cell viability; assay type: cell-based; settings: Homo sapiens, DU-145, DU145, 48 h of treatment, mean ± SD
Text: as §1, §2

[6] = test system: PNT2; experiment: MTT assay, cell viability; assay type: cell-based; settings: Homo sapiens, PNT2, 48 h of treatment, mean ± SD
Text: as §1, §2

[7] = test system: PC3; experiment: MTT assay, cell viability; assay type: cell-based; settings: Homo sapiens, PC-3, PC3, 48 h of treatment, mean ± SD
Text: as §1, §2

[8] = test system: 22Rv1; experiment: MTT assay, cell viability; assay type: cell-based; settings: Homo sapiens, 22Rv1, 48 h of treatment, mean ± SD
Text: as §1, §2

[9] = test system: HEK293; experiment: MTT assay, cell viability; assay type: cell-based; settings: Homo sapiens, HEK293, 48 h of treatment, mean ± SD
Text: as §1, §2

[10] = test system: PC3-DR cells; settings: PC3-DR vs PC3; cited from earlier work
[11] = test system: noncancer cells; experiment: MTT assay, mean IC50 in noncancer cell panel; assay type: cell-based; settings: Homo sapiens, mean over PNT2, RWPE-1, HEK293, MRC-9, 48 h
Text: as §1
The MTT assay was used to monitor the effect of the drugs on cell viability in terms of metabolic activity, as previously reported. First, preincubation of the cells in 96-well plates (6 × 10^3 cells/well in 100 μL/well) was performed overnight in the correspondent culture medium. Next, the medium was exchanged for fresh medium containing the investigated compounds or a vehicle (100 μL/well). […] Finally, 50 μL/well of DMSO were added to solve the formed formazan crystals produced by the metabolic active cells and Infinite F200PRO reader (TECAN, Männedorf, Switzerland) was used to measure the cell viability. […]

[12] = test system: PC3-DR; experiment: MTT assay, cell viability; assay type: cell-based, human; settings: Homo sapiens, PC3-DR, 48 h of treatment, mean ± SD
Text: as §1, §2

[13] = test system: PC3-DR cells; experiment: Drug combination study NB with docetaxel, MTT assay, SynergyFinder 2.0; assay type: cell-based; settings: Homo sapiens, PC3-DR, NB 0, 24 h, MTT
Procedure: Thus, drug-resistant PC3-DR cells were treated with docetaxel in combination with NB (Figure 9). Potential synergism between NB and docetaxel was measured by the Chou–Talalay method as described before.
Figure 9 Combinational treatment on PC3-DR cells with NB and docetaxel. […] MTT assay was used to examine cellular viability. Number of replicates n = 3. (A) The heatmap represents cytotoxicity (viability inhibition) of the individual drugs or their combinations. (B,C) To calculate and visualize in 2D (B) or 3D (C) the effect of the drug combination (synergism/additive effect/antagonism), the SynergyFinder v. 2.0 software (Network Pharmacology for Precision Medicine in the Research Program of System Oncology, Faculty of Medicine at University of Helsinki, Helsinki, Finland) and a ZIP reference model were used. Green regions indicate antagonism, white regions refer to additive effect, and red regions indicate synergism.
(§3) The experiments were carried out as previously reported. […] 22Rv1 cells (6 × 10^3 cells/well in 96-well plates) were simultaneously treated with NB and docetaxel; or pretreated with MAPK inhibitors for 1 h following treatment with NB in the total media volume of 100 µL/well. Following 24 h of incubation, the viability of the cells treated with individual drugs as well as their combinations was determined using MTT assay. […] Red areas (positive δ-values) and green areas (negative δ-values) indicate synergism and antagonism, respectively.

[14] = test system: prostate cancer cells; experiment: MTT assay, mean IC50 in cancer cell panel and selectivity index; assay type: cell-based, human
Text: as §1, §2

[15] = test system: 22Rv1 cells; experiment: Drug combination study NB with MAPK inhibitors, MTT assay, SynergyFinder 2.0; assay type: cell-based; settings: Homo sapiens, MTT
Text: Whether activation of MAPKs contribute to cell death or survival depends not only on the cellular context, but also on the nature of the activating stimuli. Thus, to reveal the function of JNK1/2 and p38 in the anticancer effect of NB, we co-treated 22Rv1 cells with NB and specific inhibitors of the above-mentioned MAPKs. […] As MEK1/2 kinase directly and exclusively activates ERK1/2, PD98039 inhibitor is often used as an ERK1/2 inhibitor [38]. Thus, an inactivation of MEK1/2 leads solely to an inhibition of ERK1/2 [38]. Since the inhibitors themselves exert cytotoxic effects in cancer cells, we used a Chou–Talalay method to distinguish between synergism, additive effects, or antagonistic effects of the particular MAPK inhibitor on the compound bioactivity. For this, using an MTT assay, we determined a cytotoxic effect on various concentrations of NB, MAPK inhibitors, and their combinations in 22Rv1 cells. The viability data were further analyzed using the SynergyFinder v. 2.0 software (Network Pharmacology for Precision Medicine in the Research Program of System Oncology, Faculty of Medicine at University of Helsinki, Helsinki, Finland) and a Zero interaction potency (ZIP) reference model (Figure 7).
as §3

[16] = test system: HeLa cells; parameters: method as in PMID 28051860; settings: cited from earlier work

COc1ccc(C[C@H]2NC[C@H](O)[C@H]2OC(C)=O)cc1 [Anisomycin, anisomycin, reference compound]
effect of pretreatment with pan-caspase inhibitor zVAD on drug-induced cell death [1]: strongly inhibited

CC(=O)O[C@@]12CO[C@@H]1C[C@H](O)[C@@]1(C)C(=O)[C@H](O)C3=C(C)[C@@H](OC(=O)[C@H](O)[C@@H](NC(=O)OC(C)(C)C)c4ccccc4)C[C@@](O)([C@@H](OC(=O)c4ccccc4)[C@H]21)C3(C)C [Docetaxel, docetaxel, reference compound]
IC50 [2]: 0.23 ± 0.22 nM | IC50 [3]: > 500 nM | IC50 [4]: 0.42 ± 0.23 nM | IC50 [5]: 2.2 ± 0.6 nM | IC50 [6]: > 500 nM | IC50 [7]: 7.49 ± 7.09 nM | IC50 [8]: 0.6 ± 0.12 nM | IC50 [9]: 11.5 ± 3.22 nM | fold less sensitivity of PC3-DR compared to parental cell line [10]: ~ 50 fold | fold more resistant compared to the parental cell line PC3 [10]: ~ 50 fold | IC50 [11]: 253 nM | IC50 [12]: 325 ± 21.7 nM | inhibition at 0.00625 µM ([13]; docetaxel 6.25 nM): 8.64% | inhibition at 0.025 µM ([13]; docetaxel 25 nM): 18.7% | inhibition at 0.1 µM ([13]; docetaxel 100 nM): 31% | inhibition at 0.4 µM ([13]; docetaxel 400 nM): 58.8% | IC50 ([14]; Homo sapiens, mean over PC3, PC3-DR, DU145, 22Rv1, VCaP, LNCaP, 48 h, MTT): 56.8 nM | Selectivity Index (SI) ([14]; [mean IC50 in noncancer cells]/[mean IC50 in cancer cells]): 4.5

C[S+]([O-])c1ccc(-c2nc(-c3ccncc3)c(-c3ccc(F)cc3)[nH]2)cc1 (stereo not drawn) [SB203580, reference compound]
inhibition at 12.5 µM ([15]; 22Rv1, 22Rv1, inhibitor alone 12.5 μM (NB 0)): 27.6% | inhibition at 25 µM ([15]; 22Rv1, 22Rv1, inhibitor alone 25 μM (NB 0)): 39.7% | inhibition at 50 µM ([15]; 22Rv1, 22Rv1, inhibitor alone 50 μM (NB 0)): 53.3% | inhibition at 100 µM ([15]; 22Rv1, 22Rv1, inhibitor alone 100 μM (NB 0)): 63.9%

Oc1c2ccccc2c2c3c(cccc13)N=N2 [SP600125, reference compound]
inhibition at 12.5 µM ([15]; 22Rv1, inhibitor alone 12.5 μM (NB 0), read-out: Inhibition (%)): -5.92% | inhibition at 25 µM ([15]; 22Rv1, inhibitor alone 25 μM (NB 0), read-out: Inhibition (%)): 0.99% | inhibition at 50 µM ([15]; 22Rv1, inhibitor alone 50 μM (NB 0), read-out: Inhibition (%)): 19.4% | inhibition at 100 µM ([15]; 22Rv1, inhibitor alone 100 μM (NB 0), read-out: Inhibition (%)): 27.5%

COc1ccc2cc(NC(=O)C3=NO[C@H]4[C@H](O)C=C[C@@H](O)[C@@]4(O)C3)c(=O)oc2c1OC [trichodermamide A]
cytotoxic activity in HeLa cells [16]: inactive

COc1ccc2cc(NC(=O)C3=NO[C@H]4[C@H](O)C=C[C@@H](Cl)[C@@]4(O)C3)c(=O)oc2c1OC [trichodermamide B]
cytotoxic activity in HeLa cells [16]: high cytotoxic activity

COc1ccc2cc(N(C)C(=O)C3=NO[C@H]4[C@H](O)C=C[C@@H](O)[C@@]4(O)C3)c(=O)oc2c1OC [trichodermamide C]
cytotoxic activity in HeLa cells [16]: inactive
